Experimental data: PMC4522657, “Identification of a DYRK1A Inhibitor that Induces Degradation of the Target Kinase using Co-chaperone CDC37 fused with Luciferase nanoKAZ” (Scientific Reports, 2015)

Tests used:
Assay in all cases: Kinase panel, CaNDY 1 µM
Format in all cases: biochemical
Settings in all cases: CaNDY 1 µM relative to DMSO
[1] = biological target: T1, ABL (Homo sapiens, UniProt P00519)
T1 construct: purchased Carna Biosciences
Excerpt: (§1) Detailed information on the assay conditions is available on the website of Carna Biosciences (http://www.carnabio.com/english/index.html; Kobe, Japan). In brief, full-length human recombinant kinases were expressed using a baculovirus expression system as amino-terminal GST-fusion proteins, and purified by glutathione-Sepharose chromatography. The GenBank accession numbers of DYRK1A, DYRK1B, DYRK2, and DYRK3 were NP_001387.2, NP_004705.1, NP_003574.1, and NP_003573.2. Kinase activities were evaluated by Off-chip Mobility Shift Assay after reaction of 1 μM of the substrate DYRKtide-F with ATP (25 μM for DYRK1A, 50 μM for DYRK1B, 10 μM for DYRK2, and 5 μM for DYRK3). For each compound, a DMSO solution was diluted in assay buffer to yield a final concentration of 1% DMSO. After incubation for one hour at room temperature, substrate phosphorylation was analyzed by electrophoretic separation of the substrate and products using a Caliper LC3000 platform (Caliper Life Sciences, Mountain View, CA, USA). The phosphorylated product (P)/(P + substrate) ratio was calculated at each concentration of each small molecule and the percent inhibition was expressed relative to a control assay in the absence of the small molecule. […] The IC50 of each compound was calculated by interpolation on a log-concentration-response curve fitted with a four-parameter logistic equation.
(§2) All kinase assays were carried out at Carna Biosciences. The inhibitory map was made with Kinome Render[36].

[2] = biological target: T2, ALK(R1275Q) (Homo sapiens, UniProt Q9UM73, R1275Q)
T2 construct: purchased Carna Biosciences
Excerpt: as §1, §2

[3] = biological target: T3, ARG (Homo sapiens, UniProt P42684)
T3 construct: purchased Carna Biosciences
Excerpt: as §1, §2

[4] = biological target: T4, AXL (Homo sapiens, UniProt P30530)
T4 construct: purchased Carna Biosciences
Excerpt: as §1, §2

[5] = biological target: T5, AurB (Homo sapiens, UniProt Q96GD4)
T5 construct: purchased Carna Biosciences
Excerpt: as §1, §2

[6] = biological target: T6, AurC (Homo sapiens, UniProt Q9UQB9)
T6 construct: purchased Carna Biosciences
Excerpt: as §1, §2

[7] = biological target: T7, BTK (Homo sapiens, UniProt Q06187)
T7 construct: purchased Carna Biosciences
Excerpt: as §1, §2

[8] = biological target: T8, CDC2/CycB1 (Homo sapiens, UniProt P06493)
T8 construct: purchased Carna Biosciences
Excerpt: as §1, §2

[9] = biological target: T9, CDK2/CycE1 (Homo sapiens, UniProt P24941)
T9 construct: purchased Carna Biosciences
Excerpt: as §1, §2

[10] = biological target: T10, CDK4/CycD3 (Homo sapiens, UniProt P11802)
T10 construct: purchased Carna Biosciences
Excerpt: as §1, §2

[11] = biological target: T11, CaMK2α (Homo sapiens, UniProt Q9UQM7)
T11 construct: purchased Carna Biosciences
Excerpt: as §1, §2

[12] = biological target: T12, DYRK3 (Homo sapiens, UniProt O43781)
T12 construct: purchased Carna Biosciences
Excerpt: as §1, §2

[13] = biological target: T13, EPHA3 (Homo sapiens, UniProt P29320)
T13 construct: purchased Carna Biosciences
Excerpt: as §1, §2

[14] = biological target: T14, EPHB4 (Homo sapiens, UniProt P54760)
T14 construct: purchased Carna Biosciences
Excerpt: as §1, §2

[15] = biological target: T15, Erk5 (Homo sapiens, UniProt Q13164)
T15 construct: purchased Carna Biosciences
Excerpt: as §1, §2

[16] = biological target: T16, FRK (Homo sapiens, UniProt P42685)
T16 construct: purchased Carna Biosciences
Excerpt: as §1, §2

[17] = biological target: T17, HCK (Homo sapiens, UniProt P08631)
T17 construct: purchased Carna Biosciences
T17 sequence (P08631 whole entry): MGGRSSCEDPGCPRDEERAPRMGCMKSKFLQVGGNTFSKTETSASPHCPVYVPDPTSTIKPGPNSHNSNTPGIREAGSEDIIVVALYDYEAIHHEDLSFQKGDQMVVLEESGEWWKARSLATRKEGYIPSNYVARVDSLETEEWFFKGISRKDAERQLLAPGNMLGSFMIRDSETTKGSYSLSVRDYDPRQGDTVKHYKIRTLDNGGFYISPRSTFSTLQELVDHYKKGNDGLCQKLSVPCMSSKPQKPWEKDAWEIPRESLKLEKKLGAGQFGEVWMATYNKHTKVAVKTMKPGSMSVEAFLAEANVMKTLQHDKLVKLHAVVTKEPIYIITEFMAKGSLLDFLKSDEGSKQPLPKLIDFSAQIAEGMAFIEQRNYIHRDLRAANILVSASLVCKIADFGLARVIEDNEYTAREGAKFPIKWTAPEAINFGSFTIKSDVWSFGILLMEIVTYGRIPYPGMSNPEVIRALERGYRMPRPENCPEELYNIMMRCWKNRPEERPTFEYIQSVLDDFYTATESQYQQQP
Excerpt: as §1, §2

[18] = biological target: T18, HIPK3 (Homo sapiens, UniProt Q9H422)
T18 construct: purchased Carna Biosciences
Excerpt: as §1, §2

[19] = biological target: T19, ITK (Homo sapiens, UniProt Q08881)
T19 construct: purchased Carna Biosciences
T19 sequence (Q08881 whole entry): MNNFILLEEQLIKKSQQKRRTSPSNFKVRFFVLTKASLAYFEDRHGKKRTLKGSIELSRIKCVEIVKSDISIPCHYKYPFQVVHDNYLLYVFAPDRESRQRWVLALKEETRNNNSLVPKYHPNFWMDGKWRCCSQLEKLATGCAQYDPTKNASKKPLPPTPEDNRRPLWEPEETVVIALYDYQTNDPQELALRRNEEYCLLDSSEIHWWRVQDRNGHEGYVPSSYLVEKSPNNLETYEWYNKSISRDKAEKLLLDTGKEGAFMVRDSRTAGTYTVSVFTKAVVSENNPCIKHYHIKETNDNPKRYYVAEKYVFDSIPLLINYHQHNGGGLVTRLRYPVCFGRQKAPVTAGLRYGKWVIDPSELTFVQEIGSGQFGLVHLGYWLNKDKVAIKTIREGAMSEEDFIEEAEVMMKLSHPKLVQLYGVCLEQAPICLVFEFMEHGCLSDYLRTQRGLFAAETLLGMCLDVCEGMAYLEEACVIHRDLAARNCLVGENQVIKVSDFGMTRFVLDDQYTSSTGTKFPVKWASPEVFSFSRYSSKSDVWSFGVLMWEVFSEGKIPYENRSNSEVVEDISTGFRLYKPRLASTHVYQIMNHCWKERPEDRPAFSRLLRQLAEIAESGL
Excerpt: as §1, §2

[20] = biological target: T20, LOK (Homo sapiens, UniProt O94804)
T20 construct: purchased Carna Biosciences
Excerpt: as §1, §2

[21] = biological target: T21, MAP2K3_Cascade (Homo sapiens, UniProt P46734)
T21 construct: purchased Carna Biosciences
Excerpt: as §1, §2

[22] = biological target: T22, MRCKβ (Homo sapiens, UniProt Q9Y5S2)
T22 construct: purchased Carna Biosciences
Excerpt: as §1, §2

[23] = biological target: T23, MST2 (Homo sapiens, UniProt Q13188)
T23 construct: purchased Carna Biosciences
T23 sequence (Q13188 whole entry): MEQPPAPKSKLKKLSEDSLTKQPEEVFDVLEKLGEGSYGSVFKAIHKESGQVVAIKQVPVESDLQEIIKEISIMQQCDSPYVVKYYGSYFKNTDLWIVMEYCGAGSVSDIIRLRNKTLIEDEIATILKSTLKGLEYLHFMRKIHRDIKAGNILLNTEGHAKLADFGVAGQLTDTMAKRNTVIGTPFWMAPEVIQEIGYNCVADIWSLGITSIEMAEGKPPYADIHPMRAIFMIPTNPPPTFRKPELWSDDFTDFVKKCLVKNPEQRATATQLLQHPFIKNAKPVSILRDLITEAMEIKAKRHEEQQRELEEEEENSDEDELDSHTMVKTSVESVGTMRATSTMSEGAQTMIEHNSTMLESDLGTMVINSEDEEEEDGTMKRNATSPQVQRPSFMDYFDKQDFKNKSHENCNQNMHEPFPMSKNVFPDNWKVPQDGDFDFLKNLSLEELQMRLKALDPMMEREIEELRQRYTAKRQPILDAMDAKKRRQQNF
Excerpt: as §1, §2

[24] = biological target: T24, PAK3 (Homo sapiens, UniProt O75914)
T24 construct: purchased Carna Biosciences
T24 sequence (O75914 whole entry): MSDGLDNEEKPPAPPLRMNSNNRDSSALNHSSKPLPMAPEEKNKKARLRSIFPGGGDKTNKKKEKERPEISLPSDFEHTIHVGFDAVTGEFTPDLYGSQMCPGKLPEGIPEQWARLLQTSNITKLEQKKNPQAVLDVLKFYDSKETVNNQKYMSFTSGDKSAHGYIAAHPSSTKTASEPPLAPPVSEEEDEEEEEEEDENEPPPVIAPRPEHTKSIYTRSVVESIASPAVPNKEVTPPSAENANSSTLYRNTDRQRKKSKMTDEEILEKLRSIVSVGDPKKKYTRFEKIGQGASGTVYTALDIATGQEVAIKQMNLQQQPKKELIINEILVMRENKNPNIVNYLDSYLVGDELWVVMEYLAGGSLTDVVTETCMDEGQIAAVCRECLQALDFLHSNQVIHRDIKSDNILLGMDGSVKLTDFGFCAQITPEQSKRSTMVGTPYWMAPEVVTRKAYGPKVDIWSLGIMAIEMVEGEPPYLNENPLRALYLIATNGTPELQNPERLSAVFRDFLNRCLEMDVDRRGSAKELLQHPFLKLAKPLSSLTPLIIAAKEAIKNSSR
Excerpt: as §1, §2

[25] = biological target: T25, PASK (Homo sapiens, UniProt Q96RG2)
T25 construct: purchased Carna Biosciences
T25 sequence (Q96RG2 whole entry): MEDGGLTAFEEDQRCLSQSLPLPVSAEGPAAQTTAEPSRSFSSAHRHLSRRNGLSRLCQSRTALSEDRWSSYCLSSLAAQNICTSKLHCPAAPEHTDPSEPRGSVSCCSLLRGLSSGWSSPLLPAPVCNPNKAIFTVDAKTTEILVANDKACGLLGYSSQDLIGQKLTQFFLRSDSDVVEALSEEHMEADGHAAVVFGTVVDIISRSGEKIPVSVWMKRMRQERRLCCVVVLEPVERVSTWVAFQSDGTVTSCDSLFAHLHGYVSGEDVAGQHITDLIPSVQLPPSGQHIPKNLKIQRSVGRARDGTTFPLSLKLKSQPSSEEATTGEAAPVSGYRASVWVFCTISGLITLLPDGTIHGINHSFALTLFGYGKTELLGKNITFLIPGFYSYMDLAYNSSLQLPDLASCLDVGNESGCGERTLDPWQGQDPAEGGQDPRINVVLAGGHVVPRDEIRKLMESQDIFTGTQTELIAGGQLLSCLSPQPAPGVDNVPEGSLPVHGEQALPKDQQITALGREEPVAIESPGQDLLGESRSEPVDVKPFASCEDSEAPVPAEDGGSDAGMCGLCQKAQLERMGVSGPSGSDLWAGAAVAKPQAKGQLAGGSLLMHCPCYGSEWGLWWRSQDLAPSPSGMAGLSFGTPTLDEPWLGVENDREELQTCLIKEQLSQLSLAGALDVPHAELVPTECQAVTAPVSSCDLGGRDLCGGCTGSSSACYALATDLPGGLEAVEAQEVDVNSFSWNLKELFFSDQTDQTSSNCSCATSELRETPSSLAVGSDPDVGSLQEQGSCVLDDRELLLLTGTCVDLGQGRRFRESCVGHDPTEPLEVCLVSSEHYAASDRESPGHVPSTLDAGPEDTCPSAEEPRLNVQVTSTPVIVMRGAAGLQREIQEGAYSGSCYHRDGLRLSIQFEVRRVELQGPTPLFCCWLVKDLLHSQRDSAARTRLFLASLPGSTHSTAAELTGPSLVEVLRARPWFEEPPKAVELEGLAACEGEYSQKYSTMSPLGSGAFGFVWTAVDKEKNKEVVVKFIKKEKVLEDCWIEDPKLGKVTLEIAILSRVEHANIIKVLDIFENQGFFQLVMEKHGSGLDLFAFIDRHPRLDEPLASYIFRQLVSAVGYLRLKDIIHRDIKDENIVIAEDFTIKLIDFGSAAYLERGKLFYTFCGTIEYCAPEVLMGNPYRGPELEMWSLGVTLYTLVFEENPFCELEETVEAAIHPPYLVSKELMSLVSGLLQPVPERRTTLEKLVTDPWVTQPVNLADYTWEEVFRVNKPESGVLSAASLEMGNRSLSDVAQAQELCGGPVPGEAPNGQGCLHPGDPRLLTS
Excerpt: as §1, §2

[26] = biological target: T26, PKCζ (Homo sapiens, UniProt Q05513)
T26 construct: purchased Carna Biosciences
Excerpt: as §1, §2

[27] = biological target: T27, PKCι (Homo sapiens, UniProt P41743)
T27 construct: purchased Carna Biosciences
T27 sequence (P41743 whole entry): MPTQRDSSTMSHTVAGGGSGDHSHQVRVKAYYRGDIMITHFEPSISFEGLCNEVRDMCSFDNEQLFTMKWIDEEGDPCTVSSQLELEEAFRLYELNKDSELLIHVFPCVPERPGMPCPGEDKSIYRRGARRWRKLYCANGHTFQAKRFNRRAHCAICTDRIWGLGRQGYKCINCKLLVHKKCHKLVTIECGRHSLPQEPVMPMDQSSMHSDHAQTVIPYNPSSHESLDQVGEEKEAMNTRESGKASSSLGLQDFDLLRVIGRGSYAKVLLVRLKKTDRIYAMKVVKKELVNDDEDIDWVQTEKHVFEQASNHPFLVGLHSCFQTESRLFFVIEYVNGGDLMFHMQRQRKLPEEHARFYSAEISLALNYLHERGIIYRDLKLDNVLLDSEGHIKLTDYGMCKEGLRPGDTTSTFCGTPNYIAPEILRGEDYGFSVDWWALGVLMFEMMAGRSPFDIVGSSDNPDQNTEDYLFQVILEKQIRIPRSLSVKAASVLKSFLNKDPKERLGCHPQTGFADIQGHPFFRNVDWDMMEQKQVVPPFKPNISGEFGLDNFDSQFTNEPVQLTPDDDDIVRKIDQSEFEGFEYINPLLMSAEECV
Excerpt: as §1, §2

[28] = biological target: T28, PKD3 (Homo sapiens, UniProt O94806)
T28 construct: purchased Carna Biosciences
Excerpt: as §1, §2

[29] = biological target: T29, PLK3 (Homo sapiens, UniProt Q9H4B4)
T29 construct: purchased Carna Biosciences
T29 sequence (Q9H4B4 whole entry): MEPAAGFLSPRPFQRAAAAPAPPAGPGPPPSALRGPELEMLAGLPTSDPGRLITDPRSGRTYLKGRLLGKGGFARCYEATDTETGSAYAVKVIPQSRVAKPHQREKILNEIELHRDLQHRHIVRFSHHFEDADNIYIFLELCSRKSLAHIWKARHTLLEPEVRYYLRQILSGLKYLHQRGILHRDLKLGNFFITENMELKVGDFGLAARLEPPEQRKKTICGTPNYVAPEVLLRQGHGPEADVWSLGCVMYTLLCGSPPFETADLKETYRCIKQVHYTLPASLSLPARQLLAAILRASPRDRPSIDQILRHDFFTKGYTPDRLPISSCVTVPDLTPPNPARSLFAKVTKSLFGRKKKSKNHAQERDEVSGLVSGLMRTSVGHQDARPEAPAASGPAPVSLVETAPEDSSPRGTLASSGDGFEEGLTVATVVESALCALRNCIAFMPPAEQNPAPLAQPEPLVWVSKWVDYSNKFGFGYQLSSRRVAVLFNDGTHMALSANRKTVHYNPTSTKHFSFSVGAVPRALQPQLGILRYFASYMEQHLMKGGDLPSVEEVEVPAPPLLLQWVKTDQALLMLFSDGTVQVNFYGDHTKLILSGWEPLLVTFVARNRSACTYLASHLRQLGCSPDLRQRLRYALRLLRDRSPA
Excerpt: as §1, §2

[30] = biological target: T30, SGK2 (Homo sapiens, UniProt Q9HBY8)
T30 construct: purchased Carna Biosciences
Excerpt: as §1, §2

[31] = biological target: T31, SRC (Homo sapiens, UniProt P12931)
T31 construct: purchased Carna Biosciences
Excerpt: as §1, §2

[32] = biological target: T32, SRPK2 (Homo sapiens, UniProt P78362)
T32 construct: purchased Carna Biosciences
Excerpt: as §1, §2

[33] = biological target: T33, TRKB (Homo sapiens, UniProt Q16620)
T33 construct: purchased Carna Biosciences
Excerpt: as §1, §2

[34] = biological target: T34, YES (Homo sapiens, UniProt P07947)
T34 construct: purchased Carna Biosciences
Excerpt: as §1, §2

[35] = biological target: T35, p38δ (Homo sapiens, UniProt O15264)
T35 construct: purchased Carna Biosciences
Excerpt: as §1, §2

[36] = biological target: T36, p70S6Kβ (Homo sapiens, UniProt Q9UBS0)
T36 construct: purchased Carna Biosciences
Excerpt: as §1, §2

`[H]/N=C1/NC(=O)C(=Cc2ccc3c(c2)CCO3)S1` [CaNDY, (Z)-5-[(2,3-dihydrobenzofuran-5-yl)methylene]-2-iminothiazolidin-4-one] showed a remaining activity at 1 µM [1] of 103%, a remaining activity at 1 µM [2] of 98.5% and a remaining activity at 1 µM [3] of 98.8%. It also gave a remaining activity at 1 µM [4] of 103%, a remaining activity at 1 µM [5] of 95.1% and a remaining activity at 1 µM [6] of 97%. For the same compound, the “%Activity” value [7] was 85.7%, the remaining activity at 1 µM [8] was 65.7% and the “%Activity” value [9] was 87.5%. The remaining activity at 1 µM [10] was 86.4%, the remaining activity at 1 µM [11] was 104% and the remaining activity at 1 µM [12] was 11%. The remaining activity at 1 µM [13] was 96.3%, the remaining activity at 1 µM [14] was 96.6% and the remaining activity at 1 µM [15] was 104%. For the same compound, the remaining activity at 1 µM [16] was 102%, the remaining activity at 1 µM [17] was 95.5% and the remaining activity at 1 µM [18] was 22.4%. The “%Activity” value [19] was 99.9%, the “%Activity” value [20] was 106.3% and the remaining activity at 1 µM [21] was 101%. It also gave a remaining activity at 1 µM [22] of 82.5%, a remaining activity at 1 µM [23] of 103% and a remaining activity at 1 µM [24] of 109%. The remaining activity at 1 µM [25] was 65.1%, the remaining activity at 1 µM [26] was 95.9% and the remaining activity at 1 µM [27] was 101%. For the same compound, the remaining activity at 1 µM [28] was 85.9%, the remaining activity at 1 µM [29] was 95.9% and the remaining activity at 1 µM [30] was 88.6%. It also gave a remaining activity at 1 µM [31] of 102%, a remaining activity at 1 µM [32] of 96.6% and a remaining activity at 1 µM [33] of 101%. The remaining activity at 1 µM [34] was 101%, the remaining activity at 1 µM [35] was 74.8% and the remaining activity at 1 µM [36] was 88.9%.
